# Values joined by “and” are separate entries in the source; they are usually repeats but may differ in a detail not shown here. Equal values may be shown once. Read-outs that look alike come from different tables or passages of the source.
# Legend:
# [1] = 4.5 months
# Description: A plurality of metered dose inhalers (MDIs) were filled with either the first or second therapeutic formulation. MDIs were stored either upright (Up) or inverted (in). Each MDI comprised a valve and a canister.
# [2] = HFA 134a
# physchem [3] = conditions: organic solvent or mixture, Mean Drug Solubility (± standard deviation)
# physchem [4] = conditions: organic solvent or mixture
# [5] = HFA 134a, Metering Valve 1908, 25° C., Up
# [6] = HFA 134a, Metering Valve 1908, 40° C. (75% RH), Down
# [7] = HFA 134a, Metering Valve 1908, 40° C. (75% RH), Up
# [8] = HFA 134a, Metering Valve 1908, Presspart Plasma Coated 14 ml C128, 5° C., Up
# [9] = HFA 134a, Metering valve 1904 (with dip tube 1906), 5° C., Up
# [10] = HFA 134a, Metering valve 1904 (with dip tube 1906), 40° C. (75% RH), Down
# [11] = HFA 134a, Metering valve 1904 (with dip tube 1906), 40° C. (75% RH), Up
# [12] = HFA 152a, Metering Valve 1908, 5° C., Up
# [13] = HFA 152a, Metering Valve 1908, 25° C., Up
# [14] = HFA 152a, Metering Valve 1908, 40° C. (75% RH), Down
# [15] = HFA 152a, Metering Valve 1908, 40° C. (75% RH), Up
# [16] = HFA 152a, Metering valve 1904 (with dip tube 1906), 40° C. (75% RH), orientation not given
# [17] = 0 %(w/w) ethanol, nicotine added 0.169 ± 0.009 %(w/w)
# [18] = 14.8 %(w/w) ethanol, nicotine added 0.703 %(w/w)
smiles,measurement,setting,value
"CN1CCC[C@H]1c1cccnc1 [Nicotine, L-Nicotine]",Nicotine % of 5° C.,[1]; [5],98 % of 5 °C
same,Nicotine can content,[1]; [5],23922.695 µg and 23527.533 µg
same,Nicotine % of 5° C.,[1]; [6],98 % of 5 °C
same,Nicotine can content,[1]; [6],23663.281 µg
same,Nicotine % of 5° C.,[1]; [7],97 % of 5 °C
same,Nicotine can content,[1]; [7],22809.747 µg and 23785.869 µg
same,Nicotine % of 5° C.,[1]; [8],100 % of 5 °C
same,Nicotine can content,[1]; [8],24166.562 µg and 24126.474 µg
same,Nicotine % of 5° C.,[1]; [9],100 % of 5 °C
same,Nicotine can content,[1]; [9],23891.217 µg and 23628.856 µg
same,Nicotine % of 5° C.,[1]; [10],97 % of 5 °C
same,Nicotine can content,[1]; [10],23102.878 µg and 23079.598 µg
same,Nicotine % of 5° C.,[1]; [11],96 % of 5 °C
same,Nicotine can content,[1]; [11],22360.125 µg and 23044.004 µg
same,Nicotine % of 5° C.,[1]; [12],100 % of 5 °C
same,Nicotine can content,[1]; [12],31626.434 µg and 30855.835 µg
same,Nicotine % of 5° C.,[1]; [13],100 % of 5 °C
same,Nicotine can content,[1]; [13],31592.559 µg and 30786.35 µg
same,Nicotine % of 5° C.,[1]; [14],98 % of 5 °C
same,Nicotine can content,[1]; [14],30939.368 µg and 30153.5 µg
same,Nicotine % of 5° C.,[1]; [15],98 % of 5 °C
same,Nicotine can content,[1]; [15],30982.764 µg and 30318.689 µg
same,Nicotine % of 5° C.,[1]; [16],97 % of 5 °C
same,Nicotine can content,[1]; [16],30395.997 µg and 30048.645 µg
same,Solubility in 50:50 mixtures of propellants compared with single propellants,50:50 mixtures of propellants,higher solubility than either propellant alone
same,"Solubility, equivalent % by mass",HFA 152a,0.56 % by mass
same,Effect of addition of ethanol on solubility,[2],greatly improved
same,Detected/Added *100%,[2]; [17],99 ± 11%
same,Nicotine Detected in Solution (by HPLC) % (w/w),[2]; [17],0.168 ± 0.026 % (w/w)
same,Nicotine Detected in Solution (by HPLC) μg per 50 μl,[2]; [17],104 ± 15 μg per 50 μl
same,Detected/Added *100%,[2]; [18],108 ± 2%
same,Nicotine Detected in Solution (by HPLC) % (w/w),[2]; [18],0.760 ± 0.013 % (w/w)
same,Nicotine Detected in Solution (by HPLC) μg per 50 μl,[2]; [18],421 ± 10 μg per 50 μl
same,solubility,physchem [3]; 50:50 HFA 134a/HFA 152a,85.8 ± 3.2 µg/mL
same,solubility,physchem [3]; 50:50 HFA 134a/HFO 1234ze,62.3 ± 4.4 µg/mL
same,solubility,physchem [3]; HFA 134a,38.5 ± 1.6 µg/mL
same,solubility,physchem [3]; HFA 152a,50.8 ± 2.9 µg/mL
same,solubility,physchem [3]; HFA 227ea,19.8 ± 4.9 µg/mL
same,solubility,physchem [3]; HFO 1234ze,41.5 ± 0.8 µg/mL
same,solubility,physchem [4],≥ 10 µg/mL
